We go through 17 compounds from PubChem BioAssay (NCI).

Holding throughout (assay): growth of human tumour cells (NCI), 48 h
Experiment [1] deals with HCT-15 colon.
The subject of experiment [2] is HT29 colon.
The subject of experiment [3] is NCI-H460 lung.
In experiment [4] the test system is OVCAR-5 ovarian.
In experiment [5] the test system is SR leukemia.
The subject of experiment [6] is U251 CNS.
Experiment [7] has as its system HOP-62 NSCLC.
For experiment [8], the system named is SF-295 CNS.
Experiment [9] deals with HS 578T breast.

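Exposure lasted 48 hours, with cells grown in 96-well plates and compounds tested at five concentrations. At the TGI there is no net growth.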

`CC(=O)O[C@@]1(C)[C@@H](C)C(=O)O[C@@H]2CCN3CC=C(COC(=O)[C@]1(C)O)[C@H]23`: the TGI in [1], in [2], in experiment [3], in experiment [4], in experiment [5] and in experiment [6] was greater than 100 µM in each case. The same compound had a TGI in [7] greater than 100 µM.

Take `O=C(N/N=C1\C(=O)N(c2nccs2)C(=O)C(=O)C1c1nc2ccccc2s1)c1ccccc1O` (stereo unspecified): the TGI in [1], in experiment [8], in experiment [2], in [3], in experiment [4] and in experiment [6] was greater than 100 µM throughout. This compound also returned a TGI in experiment [7] of 90.4 µM.

On to `C/C=C(\CCOS(=O)(=O)c1ccc(C)cc1)[Si](C)(C)C`, for which the TGI in experiment [1], in [8], in [2], in experiment [3], in [4] and in experiment [5] was greater than 100 µM throughout. The same compound yielded a TGI in experiment [6] greater than 100 µM.

Take `CCCCCCCCCCCCCCCCCCOCC(CCP(=O)(CP(=O)(O)O)Oc1ccccc1)OCCCCCCCCCCCCCCCCCC` (stereo unspecified): the TGI in experiment [1], in experiment [9], in experiment [8], in experiment [2], in [3] and in experiment [4] was greater than 100 µM in each case. Also, the TGI in experiment [5], in experiment [6] and in experiment [7] was greater than 100 µM throughout.

Turning to `CCc1cc(CCC(=O)Nc2ccccc2[N+](=O)[O-])[nH]c(=S)n1`, the TGI in experiment [1], in experiment [8], in experiment [2], in experiment [3], in [4] and in experiment [5] was greater than 100 µM in each case. In addition, the TGI in [6] and in experiment [7] was greater than 100 µM in each case.

Take `Cc1cccc2c1CCC21OC(=O)c2c1ccc1ccccc21` (stereo unspecified): the TGI in [1] was greater than 100 µM; in [8], greater than 100 µM; in experiment [2] it was greater than 100 µM; in experiment [3] it was greater than 100 µM; in experiment [4] it was greater than 100 µM; in [5], 85.3 µM. Also, the TGI in experiment [6] and in experiment [7] was greater than 100 µM in each case.

Turning to `Nc1n[n+](-c2ccccc2)no1`, the TGI in experiment [1], in [8], in experiment [2], in experiment [3], in experiment [4] and in [6] was greater than 100 µM each time. Moreover, the TGI in experiment [7] is greater than 100 µM.

For `O=C(CC(=O)c1cccc2ccccc12)C(=O)NC1C2CC3CC(C2)CC1C3` (stereo unspecified), the TGI in experiment [1], in [8], in experiment [2], in [3], in experiment [4] and in experiment [6] was greater than 100 µM throughout. Further, the TGI in experiment [7] is greater than 100 µM.

In the case of `C=C1C(OC(=O)/C=C/c2ccccc2)CC(OC(C)=O)C2(C)C1CC1CC(OC(C)=O)C(C)=C(C(OC(C)=O)C2OC(C)=O)C1(C)C` (stereo unspecified), the TGI in experiment [1], in experiment [8], in experiment [2], in experiment [3], in [4] and in [5] was greater than 100 µM throughout. The TGI in experiment [6] and in [7] was greater than 100 µM throughout.

As for `O=C(O/N=C1/CCC/C1=C\c1ccccc1)c1ccc(Cl)c(Cl)c1`, the TGI in experiment [1], in experiment [8], in [2], in experiment [3], in experiment [4] and in [5] was greater than 100 µM each time. The TGI in [6] and in [7] was greater than 100 µM in each case.

Consider `O=C1C2C(C(=O)N1c1ccccc1)C1([N+](=O)[O-])C=C3c4ccccc4N(C(=O)c4ccccc4)C32C2C(=O)N(c3ccccc3)C(=O)C21` (stereo unspecified), for which the TGI in experiment [1], in experiment [8], in [2], in experiment [3], in experiment [4] and in experiment [5] was greater than 100 µM in each case. The TGI in experiment [6] and in [7] was greater than 100 µM each time.

On to `CC(C)(C)c1ccc(OCCOCCOc2ccc(C(C)(C)C)cc2S(=O)(=O)Nc2ccc([N+](=O)[O-])cc2)c(S(=O)(=O)Nc2ccc([N+](=O)[O-])cc2)c1`, for which the TGI in experiment [1], in experiment [8], in [2], in experiment [3], in [4] and in [6] was greater than 100 µM each time. The TGI in experiment [7] is greater than 100 µM.

`NC1=NN(c2ccccc2)C(=O)C1C(=O)C(=O)Nc1nccs1` (stereo unspecified): the TGI in [1], in experiment [8], in [2], in experiment [3], in experiment [4] and in [5] was greater than 100 µM throughout. For the same compound, the TGI in experiment [6] and in experiment [7] was greater than 100 µM each time.

As for `COc1ccc2c3c(c(C(=O)c4ccccc4)oc13)CCC2`, the TGI in experiment [1], in [8], in experiment [2], in [3], in experiment [6] and in experiment [7] was greater than 100 µM in each case.

With `N#CC1(C#N)C2C=CC(c3coc4cccc2c34)C1(C#N)C#N` (stereo unspecified), the TGI in experiment [1] was found to be 19.2 µM; in experiment [8], 42.8 µM; in experiment [2], 41.6 µM; in experiment [3] it was 37.4 µM; in [4], 30.8 µM; in experiment [5] it was 7.83 µM. Besides, the TGI in experiment [6] amounted to 33.9 µM; in [7], 46.5 µM.

Regarding `O=C(CCn1[nH]c(=O)c(Cl)c(Cl)c1=O)NNC(=O)C[n+]1ccccc1`, the TGI in [1], in experiment [8], in experiment [2], in experiment [3], in experiment [4] and in experiment [7] was greater than 100 µM in each case.

Take `CCOC(=O)c1cnc2c(ccc3ncccc32)c1NCCCN(CC)CC`: the TGI in experiment [1], in [8], in [2], in experiment [3], in [4] and in [6] was greater than 100 µM each time. In addition, the TGI in experiment [7] was greater than 100 µM.
